Results taken from patent publication US12180156B2 (priority 2020, dated 2024).
Like-named read-outs stand apart in the source and are kept apart here.

Legend:
[1] = biological target: SARS-CoV-2 3CLpro (Severe acute respiratory syndrome coronavirus 2 (2019-nCoV) (SARS-CoV-2), UniProt P0DTD1); experiment: biochemical; type: biochemical
[2] = Nonspecific cytotoxic effects (CytoTox 96 assay); type: cell-based; settings: African green monkey (Vero E6) and cat (CRFK); Vero E6 and CRFK cells, 72 hr
Procedure: (§1) Nonspecific cytotoxic effects. […] Confluent cells grown in 96-well plates were incubated with various concentrations (1 to 100 μM) of each compound for 72 hr. Cell cytotoxicity was measured by a CytoTox 96 nonradioactive cytotoxicity assay kit (Promega, Madison, WI), and the CC50 values were calculated using a variable slope by GraphPad Prism software (Table 2).

[3] = test system: FIPV; experiment: Inhibitory activity against FIPV in cell culture (Table 1); type: cell-based; settings: Alphacoronavirus 1, cell culture
[4] = biological target: SARS-CoV2 (enzyme) (Severe acute respiratory syndrome coronavirus 2 (2019-nCoV) (SARS-CoV-2), UniProt P0DTD1); experiment: Inhibitory activity against SARS-CoV2 enzyme (Table 1); type: biochemical
[5] = test system: SARS-CoV-2; experiment: Cell-based assay for antiviral activity, plaque reduction in Vero E6 cells; settings: mean ± standard deviation
[6] = test system: SARS-CoV-2; experiment: Cell-based assay for antiviral activity in A549-ACE2 cells; settings: Severe acute respiratory syndrome coronavirus 2, mean ± standard deviation
[7] = test system: SARS-CoV-2; type: in vivo, K18-hACE2 mice; settings: for lung edema average score: score 0-4
[8] = test system: Vero E6 and CRFK cells; experiment: Nonspecific cytotoxic effects (CytoTox 96 assay); type: cell-based
Procedure: as §1

[9] = test system: SARS-CoV-2; settings: cited from earlier work
[10] = Severe acute respiratory syndrome coronavirus 2, Vero C1008, read-out: EC50 (μM) VeroE6, VeroE6 cells
[11] = read-out: EC50 (μM) VeroE6, VeroE6 cells

In the case of `[2H]C([2H])(OC(=O)N[C@@H](CC(C)C)C(=O)N[C@@H](C[C@@H]1CCNC1=O)C(=O)C(=O)NCc1ccccc1)c1ccccc1` [Compound 5, Phenylmethyl-d2 ((S)-1-(((S)-4-(benzylamino)-3,4-dioxo-1-((S)-2-oxopyrrolidin-3-yl)butan-2-yl)amino)-4-methyl-1-oxopentan-2-yl)carbamate], the IC50 [1] is reported as 1310 ± 550 nM, the “potency (IC50) in the enzyme assay compared to aldehyde and bisulfite counterparts” value [1] is reported as “markedly decreased potency” and the CC50 at 72 h [2] is reported as over 100000 nM.
`[2H]C([2H])(OC(=O)N[C@@H](CC(C)C)C(=O)N[C@@H](C[C@@H]1CCNC1=O)C(OC(=O)CCCCC)S(=O)(=O)[O-])c1ccccc1.[Na+]` (stereo partly drawn) [Prodrug of GC1129-No2] gave an EC50 [3] of 0.06 µM and an EC50 [4] of 0.8 µM.
Work on `CC(C)C[C@H](NC(=O)OCc1ccccc1)C(=O)N[C@H](C=O)C[C@@H]1CCNC1=O` [Parental aldehyde, reference compound] yielded an EC50 [3] of 0.05 µM.
`[2H]c1c([2H])c([2H])c(COC(=O)N[C@@H](CC(C)C)C(=O)N[C@H](C=O)C[C@@H]2CCNC2=O)c([2H])c1[2H]` [Compound 6, (Phenyl-d5)methyl ((S)-4-methyl-1-oxo-1-(((S)-1-oxo-3-((S)-2-oxopyrrolidin-3-yl)propan-2-yl)amino)pentan-2-yl)carbamate] showed an EC50 [5, 10] of 0.068 to 0.086 µM, an EC50 [5, 11] of 0.077 ± 0.01 µM and an EC50 [6] of 0.075 ± 0.01 µM. For the same molecule, the CC50 at 72 h [2] was over 100000 nM.
Molecule `[2H]c1c([2H])c([2H])c(C([2H])([2H])OC(=O)N[C@@H](CC(C)C)C(=O)N[C@@H](C[C@@H]2CCNC2=O)C(O)S(=O)(=O)[O-])c([2H])c1[2H].[Na+]` (stereo in doubt) [Deuterated GC376-No1] has an EC50 [3] of 0.08 µM.
With `[2H]C([2H])(OC(=O)N[C@@H](CC(C)C)C(=O)N[C@@H](C[C@@H]1CCNC1=O)C(O)S(=O)(=O)[O-])c1ccccc1.[Na+]` (stereo partly drawn) [Compound 2, Sodium (2S)-1-hydroxy-2-((S)-4-methyl-2-(((phenylmethoxy-d2)carbonyl)amino)pentan-amido)-3-((S)-2-oxopyrrolidin-3-yl)propane-1-sulfonate] the EC50 [5, 10] was 0.068 to 0.086 µM, the EC50 [5, 11] was 0.086 ± 0.02 µM and the EC50 [6] was 0.069 ± 0.01 µM. For the same molecule, the CC50 at 72 h [2] was over 100000 nM, the “pathological changes and infectious virus in the brains” value ([7]; 2 and 5 dpi, detection limit 200 PFU/g) was “neither pathological changes nor infectious virus was detected” and the lung perivascular infiltrates ([7]; 2 dpi) was “Mild perivascular infiltrates”. For the same molecule, the “lung edema average score” value ([7]; 2 dpi) was 0, the “lung virus titers versus vehicle” value ([7]; 2 dpi, second experiment) was “statistically significant reduction of virus titers” and the “lung edema average score” value ([7]; 5 dpi) was 2. The survival ([7]; first experiment: 2×10^3 pfu per mouse, 100 mg/kg/day once a day from 1 dpi, 15 dpi) was “All compound 2-treated mice gradually gained body weight and were alive at the end of the study”, the body weight loss ([7]; first experiment: 2×10^3 pfu per mouse, 100 mg/kg/day, 5-10 dpi, versus vehicle) was “loss was less severe compared to vehicle-treated mice” and the “lung perivascular infiltrations average score” value ([7]; mouse, in vivo) was 2.
In the case of `[2H]c1c([2H])c([2H])c(C([2H])([2H])OC(=O)N[C@@H](CC(C)C)C(=O)N[C@@H](C[C@@H]2CCNC2=O)C(OC(=O)CCCCC)S(=O)(=O)[O-])c([2H])c1[2H].[Na+]` (stereo partly drawn) [Compound 11, Sodium (5S,8S)-5-isobutyl-3,6,11-trioxo-8-(((S)-2-oxopyrrolidin-3-yl)methyl)-1-(phenyl-d5)-2,10-dioxa-4,7-diazahexadecane-9-sulfonate-1,1-d2], the IC50 [1] is reported as 770 ± 120 nM, the “potency (IC50) in the enzyme assay compared to aldehyde and bisulfite counterparts” value [1] is reported as “significantly increased IC50 values” and the CC50 at 72 h [2] is reported as over 100000 nM.
In the case of `[2H]C([2H])(OC(=O)N[C@@H](CC(C)C)C(=O)N[C@@H](C[C@@H]1CCNC1=O)C(OC(=O)CCCCC)S(=O)(=O)[O-])c1ccccc1.[Na+]` (stereo partly drawn) [Compound 4, Sodium (5S,8S)-5-isobutyl-3,6,11-trioxo-8-(((S)-2-oxopyrrolidin-3-yl)methyl)-1-phenyl-2,10-dioxa-4,7-diazahexadecane-9-sulfonate-1,1-d2], the IC50 [1] is reported as 800 ± 100 nM, the “potency (IC50) in the enzyme assay compared to aldehyde and bisulfite counterparts” value [1] is reported as “significantly increased IC50 values” and the CC50 at 72 h [2] is reported as over 100000 nM.
`[2H]c1c([2H])c([2H])c(C([2H])([2H])OC(=O)N[C@@H](CC(C)C)C(=O)N[C@H](C=O)C[C@@H]2CCNC2=O)c([2H])c1[2H]` [Compound 9, (Phenyl-d5)methyl-d2 ((S)-4-methyl-1-oxo-1-(((S)-1-oxo-3-((S)-2-oxopyrrolidin-3-yl)propan-2-yl)amino)pentan-2-yl)carbamate] showed a CC50 at 72 h [2] of over 100000 nM.
Work on `[2H]c1c([2H])c([2H])c(C([2H])([2H])OC(=O)N[C@@H](CC(C)C)C(=O)N[C@H](C=O)C[C@@H]2CCNC2=O)c([2H])c1[2H]` [Deuterated GC373-No1] yielded an EC50 [3] of 0.05 µM.
With `[2H]C([2H])(OC(=O)N[C@@H](CC(C)C)C(=O)N[C@@H](C[C@@H]1CCNC1=O)C(OC(C)=O)S(=O)(=O)[O-])c1ccccc1.[Na+]` (stereo partly drawn) [Prodrug of GC1129-No1] the EC50 [3] was 0.06 µM and the EC50 [4] was 0.7 µM.
`CC(C)C[C@H](NC(=O)OCc1ccccc1)C(=O)N[C@@H](C[C@@H]1CCNC1=O)C(O)S(=O)(=O)O` (stereo partly drawn) [Compound 10, Sodium(2S)-1-hydroxy-2-((S)-4-methyl-2-((((phenyl-d5)methoxy-d2)carbonyl)amino)pentanamido)-3-((S)-2-oxopyrrolidin-3-yl)propane-1-sulfonate] gave a CC50 ([8]; Vero E6 and CRFK cells, 72 hr) of over 100000 nM.
Molecule `[2H]C([2H])(OC(=O)N[C@@H](CC(C)C)C(=O)N[C@H](C=O)C[C@@H]1CCNC1=O)c1ccccc1` [Deuterated GC373-No2] has an EC50 [3] of 0.05 µM.
In the case of `CC(C)C[C@H](NC(=O)OCc1ccccc1)C(=O)N[C@@H](C[C@@H]1CCNC1=O)C(O)S(=O)(=O)[O-].[Na+]` (stereo partly drawn) [GC376, reference compound], the EC50 [3] is reported as 0.05 µM, the EC50 [5, 10] is reported as 0.23 ± 0.01 µM and the cytotoxicity ([8]; up to 100 μM) is reported as “did not show any cytotoxicity”. For the same molecule, the survival ([9]; given three hours after virus inoculation that led to 100% fatality, versus vehicle) was “no difference in survival” and the “viral load and inflammation in the lungs” value ([9]; given three hours after virus inoculation, versus vehicle-treated controls) was “reduced viral load and inflammation”.
With `[2H]C([2H])(OC(=O)N[C@@H](CC(C)C)C(=O)N[C@@H](C[C@@H]1CCNC1=O)C(OC(C)=O)S(=O)(=O)[O-])c1ccccc1.[Na+]` (stereo partly drawn) [Compound 3, Sodium (5S,8S)-5-isobutyl-3,6,11-trioxo-8-(((S)-2-oxopyrrolidin-3-yl)methyl)-1-phenyl-2,10-dioxa-4,7-diazadodecane-9-sulfonate-1,1-d2] the IC50 [1] was 710 ± 60 nM, the “potency (IC50) in the enzyme assay compared to aldehyde and bisulfite counterparts” value [1] was “significantly increased IC50 values” and the CC50 at 72 h [2] was over 100000 nM.
With `[2H]c1c([2H])c([2H])c(COC(=O)N[C@@H](CC(C)C)C(=O)N[C@@H](C[C@@H]2CCNC2=O)C(O)S(=O)(=O)[O-])c([2H])c1[2H].[Na+]` (stereo partly drawn) [Compound 7, Sodium (2S)-1-hydroxy-2-((S)-4-methyl-2-((((phenyl-d5)methoxy)carbonyl)amino)pentanamido)-3-((S)-2-oxopyrrolidin-3-yl)propane-1-sulfonate] the EC50 [5, 10] was 0.068 to 0.086 µM, the EC50 [5, 11] was 0.079 ± 0.01 µM and the EC50 [6] was 0.1 ± 0.01 µM. The CC50 at 72 h [2] was over 100000 nM.
In the case of `[2H]c1c([2H])c([2H])c(COC(=O)N[C@@H](CC(C)C)C(=O)N[C@@H](C[C@@H]2CCNC2=O)C(OC(=O)CCCCC)S(=O)(=O)[O-])c([2H])c1[2H].[Na+]` (stereo partly drawn) [Compound 8, Sodium (5S,8S)-5-isobutyl-3,6,11-trioxo-8-(((S)-2-oxopyrrolidin-3-yl)methyl)-1-(phenyl-d5)-2,10-dioxa-4,7-diazahexadecane-9-sulfonate], the IC50 [1] is reported as 680 ± 350 nM, the “potency (IC50) in the enzyme assay compared to aldehyde and bisulfite counterparts” value [1] is reported as “significantly increased IC50 values” and the CC50 at 72 h [2] is reported as over 100000 nM.
Molecule `[2H]C([2H])(OC(=O)N[C@@H](CC(C)C)C(=O)N[C@H](C=O)C[C@@H]1CCNC1=O)c1ccccc1` [Compound 1, Phenylmethyl-d2 ((S)-4-methyl-1-oxo-1-(((S)-1-oxo-3-((S)-2-oxopyrrolidin-3-yl)propan-2-yl)amino)pentan-2-yl)carbamate] has an EC50 [5, 10] of 0.068 to 0.086 µM, an EC50 [5, 11] of 0.068 ± 0.01 µM and an EC50 [6] of 0.086 ± 0.01 µM. The CC50 at 72 h [2] was over 100000 nM.
